Data set [1] concerns SW-620. Kind of data set: Inhibition of colony formation in human SW620 cells assessed as reduction in colony forming ability at 1.25 uM incubated for 15 days by crystal violet staining based analysis. It counts as functional. The settings on record: SW-620, 360 h, time 15 day.
The target in data set [2] is Phosphatidylinositol 4,5-bisphosphate 3-kinase catalytic subunit beta isoform (Homo sapiens, UniProt P42338). Nature of the data set: Inhibition of PI3Kbeta (unknown origin) using PIP2 as substrate incubated for 1 hr in presence of ATP by Kinase Glo luminescence assay. Background: Kinase-Glo measures the ATP left after a reaction by luminescence.
Chain of Phosphatidylinositol 4,5-bisphosphate 3-kinase catalytic subunit beta isoform (P42338 whole entry, canonical isoform): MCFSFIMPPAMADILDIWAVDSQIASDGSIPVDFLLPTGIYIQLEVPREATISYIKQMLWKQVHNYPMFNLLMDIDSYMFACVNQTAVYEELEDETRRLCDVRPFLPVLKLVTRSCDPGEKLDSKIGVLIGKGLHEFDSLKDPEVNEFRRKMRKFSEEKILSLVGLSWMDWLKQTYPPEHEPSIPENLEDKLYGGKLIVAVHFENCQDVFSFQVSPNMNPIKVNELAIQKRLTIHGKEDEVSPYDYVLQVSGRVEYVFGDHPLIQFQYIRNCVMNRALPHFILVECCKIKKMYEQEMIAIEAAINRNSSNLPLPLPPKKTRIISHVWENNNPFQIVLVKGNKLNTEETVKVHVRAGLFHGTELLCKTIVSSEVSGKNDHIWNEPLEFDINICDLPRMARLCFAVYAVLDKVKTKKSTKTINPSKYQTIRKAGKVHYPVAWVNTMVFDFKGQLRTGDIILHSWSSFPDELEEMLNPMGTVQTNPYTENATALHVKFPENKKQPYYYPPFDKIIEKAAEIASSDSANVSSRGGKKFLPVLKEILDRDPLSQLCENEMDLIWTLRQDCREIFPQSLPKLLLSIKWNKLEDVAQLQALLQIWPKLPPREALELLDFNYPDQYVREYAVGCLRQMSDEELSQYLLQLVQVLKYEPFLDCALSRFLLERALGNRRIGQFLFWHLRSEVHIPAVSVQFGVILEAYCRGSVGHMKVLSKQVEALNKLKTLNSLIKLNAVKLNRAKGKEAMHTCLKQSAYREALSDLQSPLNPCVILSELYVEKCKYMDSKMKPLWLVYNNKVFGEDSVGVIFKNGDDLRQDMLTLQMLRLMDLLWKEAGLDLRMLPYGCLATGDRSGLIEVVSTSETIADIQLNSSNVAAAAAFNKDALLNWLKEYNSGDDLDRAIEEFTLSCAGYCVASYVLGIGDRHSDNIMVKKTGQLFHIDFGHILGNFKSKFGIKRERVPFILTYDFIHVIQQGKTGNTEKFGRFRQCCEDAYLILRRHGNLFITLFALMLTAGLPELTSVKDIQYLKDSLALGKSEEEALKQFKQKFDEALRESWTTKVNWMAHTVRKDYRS
The target of data set [3] is T1, Phosphatidylinositol 4,5-bisphosphate 3-kinase catalytic subunit gamma isoform (Homo sapiens, UniProt P48736). Kind of data set: Inhibition of PI3Kgamma (unknown origin) using PIP2 as substrate incubated for 2 hrs in presence of ATP by Kinase Glo luminescence assay.
T1 sequence (P48736 whole entry, canonical isoform): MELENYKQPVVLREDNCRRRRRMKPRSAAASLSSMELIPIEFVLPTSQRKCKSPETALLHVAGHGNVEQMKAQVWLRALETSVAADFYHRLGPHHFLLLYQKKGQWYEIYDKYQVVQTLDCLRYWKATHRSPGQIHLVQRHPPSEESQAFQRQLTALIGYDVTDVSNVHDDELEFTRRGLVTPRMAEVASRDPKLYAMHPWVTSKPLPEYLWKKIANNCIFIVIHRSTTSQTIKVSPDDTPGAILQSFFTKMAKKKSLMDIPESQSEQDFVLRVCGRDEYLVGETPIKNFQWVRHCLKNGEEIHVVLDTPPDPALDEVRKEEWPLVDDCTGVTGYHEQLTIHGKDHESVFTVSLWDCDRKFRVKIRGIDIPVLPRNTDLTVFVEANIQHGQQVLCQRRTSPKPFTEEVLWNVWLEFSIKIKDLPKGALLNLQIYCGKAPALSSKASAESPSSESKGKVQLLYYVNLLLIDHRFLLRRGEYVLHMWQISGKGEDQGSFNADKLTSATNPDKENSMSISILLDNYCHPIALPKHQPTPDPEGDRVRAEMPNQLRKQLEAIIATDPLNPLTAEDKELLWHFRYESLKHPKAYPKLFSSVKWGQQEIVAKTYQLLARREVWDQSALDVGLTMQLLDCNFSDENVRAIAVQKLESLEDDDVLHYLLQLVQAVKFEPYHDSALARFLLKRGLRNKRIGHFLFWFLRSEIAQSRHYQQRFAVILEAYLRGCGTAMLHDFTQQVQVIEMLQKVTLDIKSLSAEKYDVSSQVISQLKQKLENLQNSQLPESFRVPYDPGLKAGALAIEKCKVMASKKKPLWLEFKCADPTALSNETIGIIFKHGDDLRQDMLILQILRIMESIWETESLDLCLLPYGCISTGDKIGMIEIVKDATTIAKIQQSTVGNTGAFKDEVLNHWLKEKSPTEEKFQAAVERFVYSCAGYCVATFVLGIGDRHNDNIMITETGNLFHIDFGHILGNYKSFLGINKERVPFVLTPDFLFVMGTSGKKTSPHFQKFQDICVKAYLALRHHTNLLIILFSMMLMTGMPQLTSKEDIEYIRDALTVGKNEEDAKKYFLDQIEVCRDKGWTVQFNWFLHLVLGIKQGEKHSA
Data set [4] in a line: Half life in Sprague-Dawley rat at 1 mg/kg, iv measured for 24 hrs by LC-MS/MS analysis. The settings on record: in vivo. It counts as ADME, organism-based.
For data set [5], the system named is HeLa. Kind of data set: Induction of apoptosis in human HeLa cells assessed as viable cells at 2.5 uM incubated for 36 hrs by Annexin V-FITC/PI staining based flow cytometric analysis (reference value: 96.14 %). In kind it is functional. The conditions noted are these: read-out: Activity. (In general: Flow cytometry measures light scatter and fluorescence of single cells or particles in a stream.)

Data set [6] has as its system HeLa. Nature of the data set: Induction of apoptosis in human HeLa cells assessed as early apoptotic cells at 0.3125 uM incubated for 36 hrs by Annexin V-FITC/PI staining based flow cytometric analysis (reference value: 2.02 %). It counts as functional.
Data set [7] relates to HeLa. Kind of data set: Induction of apoptosis in human HeLa cells assessed as early apoptotic cells at 2.5 uM incubated for 36 hrs by Annexin V-FITC/PI staining based flow cytometric analysis (reference value: 2.02 %). In kind it is functional.
The nature of data set [8]: Toxicity in BALB/c nude mouse xenografted with human HeLa cells assessed as pathological changes in liver at 60 mg/kg, IG administered daily for 30 days by hematoxylin and eosin staining based microscopic analysis. It counts as organism-based. The conditions noted are these: in vivo, po, 720 h, time 30 day. Background: In xenograft studies the graft and the host belong to different species.

The nature of data set [9]: Toxicity in BALB/c nude mouse xenografted with human HeLa cells assessed as pathological changes in kidney at 60 mg/kg, IG administered daily for 30 days by hematoxylin and eosin staining based microscopic analysis. The settings on record: in vivo, po, 720 h, time 30 day. It counts as organism-based.
The nature of data set [10]: Toxicity in BALB/c nude mouse xenografted with human HeLa cells assessed as pathological changes in spleen at 60 mg/kg, IG administered daily for 30 days by hematoxylin and eosin staining based microscopic analysis. In kind it is organism-based. The settings on record: in vivo, po, 720 h, time 30 day.
Data set [11] has as its system HeLa. Nature of the data set: Induction of apoptosis in human HeLa cells assessed as viable cells at 0.3125 uM incubated for 36 hrs by Annexin V-FITC/PI staining based flow cytometric analysis (reference value: 96.14 %). In kind it is functional. The settings on record: read-out: Activity.
The subject of data set [12] is HeLa. Nature of the data set: Antitumor activity against human HeLa cells xenografted in BALB/c nude mouse assessed as tumor growth inhibition at 15 mg/kg, IG administered daily for 30 days and measured every 2 days relative to control. In kind it is functional. The conditions noted are these: po, 720 h, time 30 day, read-out: TGI.
Data set [13] deals with T1, Phosphatidylinositol 4,5-bisphosphate 3-kinase catalytic subunit gamma isoform. Kind of data set: Inhibition of PI3Kgamma (unknown origin) using L-alpha-phosphatidylinositol as substrate incubated for 120 mins in presence of ATP by Kinase Glo luminescence assay.
Data set [14] deals with SW-620. Kind of data set: Antitumor activity against human SW620 cells xenografted in BALB/c nude mouse assessed as tumor growth inhibition at 15 mg/kg, IG administered daily for 30 days and measured every 2 days relative to control. It counts as functional. The conditions noted are these: SW-620, po, 720 h, time 30 day, read-out: TGI.
Data set [15] is described as follows: Toxicity in BALB/c nude mouse xenografted with human HeLa cells assessed as lethality at 15 to 60 mg/kg, IG administered daily for 30 days and measured every 2 days. It counts as organism-based. The conditions noted are these: in vivo, po, 720 h, dose 15-60 mg/kg, time 30 day.
A short description of data set [16]: Oral bioavailability in Sprague-Dawley rat at 10 mg/kg measured for 24 hrs by LC-MS/MS analysis. It counts as ADME, organism-based. The settings on record: in vivo.
The next data set concerns Mus musculus. Kind of data set: In vivo inhibition of PI3K/mTOR signalling pathway in BALB/c nude mouse xenografted with human HeLa cells assessed as downregulation of pS6 protein expression in tumor at 15 to 60 mg/kg, IG administered daily for 30 days. In kind it is functional, organism-based. The settings on record: dose 15-60 mg/kg, time 30.0 day.
The subject of data set [17] is HeLa. Nature of the data set: Induction of apoptosis in human HeLa cells xenografted in BALB/c nude mouse at 15 to 60 mg/kg, IG administered daily for 30 days by TUNEL assay. The conditions noted are these: dose 15-60 mg/kg, time 30.0 day. In kind it is functional, organism-based.
Data set [18] concerns HeLa. Nature of the data set: Induction of apoptosis in human HeLa cells assessed as dead cells at 0.3125 uM incubated for 36 hrs by Annexin V-FITC/PI staining based flow cytometric analysis (reference value: 0.44 %). It counts as functional.
The nature of data set [19]: Toxicity in BALB/c nude mouse xenografted with human HeLa cells assessed as pathological changes in lung at 60 mg/kg, IG administered daily for 30 days by hematoxylin and eosin staining based microscopic analysis. In kind it is organism-based. The settings on record: in vivo, po, 720 h, time 30 day.
For data set [20], the target named is DNA-dependent protein kinase catalytic subunit (Homo sapiens) (UniProt P78527). Kind of data set: Inhibition of DNA-PK (unknown origin) at 1 uM.
In data set [21] the test system is SW-620. Kind of data set: Induction of cell cycle arrest in human SW620 cells assessed as accumulation of cells at G0/G1 phase measured after 24 hrs by propidium iodide staining based flow cytometry analysis. The settings on record: dose 0.15625-2.5 µM, DDE = dose-dependent effect. It counts as functional.

The source made the active and inactive calls.

Broadly, the inhibition is the change of the read-out against control, counted positive when it falls. As a reminder, the IC50 is the midpoint of a concentration-inhibition curve. The half-life is the time needed for the level to fall by half in the phase considered. Higher therefore signals slow loss. The bioavailability is the share of a dose that reaches the circulation, judged against a reference dose that is usually intravenous. The low end stands for little systemic uptake, the high end for much systemic uptake. Turning to `Cc1nc2cnc3ccc(-c4cnc5[nH]ccc5c4)cc3c2n1-c1ccc(C(C)(C)C#N)nc1`, in the data set on SW-620 [1], the inhibition at 1.25 µM worked out at 100%. Further, the IC50 was 108 nM in data set [2], 79.3 nM in [3] and 5 nM in [13]. In addition, in data set [4], the half-life was 1.16 h. Moreover, the viability at 2.5 µM in the data set with HeLa [5] worked out at 27.8%. Moreover, the Activity with HeLa [6] is 6.23%; in the data set on HeLa [7], 27.18%; in data set [8], “Non-Toxic”; in [9], “Non-Toxic”; in [10], “Non-Toxic”; in data set [15] it was “Non-Toxic”. The Activity is 0.84% with HeLa [18], “Non-Toxic” in [19] and “Dde” in the data set on SW-620 [21]. Further, the viability at 0.3125 µM in the data set on HeLa [11] amounted to 89.9%. Moreover, the inhibition in vivo at 15 mg/kg is 60.8% in the data set with HeLa [12] and 60.6% in the data set with SW-620 [14]. In addition, the bioavailability in [16] came out at 76.8%. Besides, the inhibition result (in the data set on Mus musculus; in [20]) was “Active” throughout. The outcome with HeLa [17] was Active.

(Values after ChEMBL document CHEMBL5108059, “Discovery of 2-Methyl-2-(4-(2-methyl-8-(1H-pyrrolo[2,3-b]pyridin-6-yl)-1H-naphtho[1,2-d]imidazol-1-yl)phenyl)propanenitrile as a Novel PI3K/mTOR Inhibitor with Enhanced Antitumor Efficacy In Vitro and In Vivo” (J Med Chem, 2022).)
